Experimental data taken from paper PMC9763021, “Comprehensive Assessment of Biomolecular Interactions of Morpholine-Based Mixed Ligand Cu(II) and Zn(II) Complexes of 2,2′-Bipyridine as Potential Anticancer and SARS-CoV-2 Agents: A Synergistic Experimental and Structure-Based Virtual Screening” (Bioinorganic Chemistry and Applications, 2022).

Tested on: CT-DNA
Experiment: DNA binding by UV-visible absorption titration
Parameters: species or system calf thymus
Settings: for % H (hypochromism) / Δλ nm (red shift on DNA binding): Tris-HCl pH 7.4, 25°C; for ∆Gb° BH-I: from Kb BH-I; for ∆Gb° BH-I / ∆Gb° (BH-II) / ∆Gb° SK-I / ∆Gb° (SK-II) / ∆Gb° (WS-II) / ∆Gb° WS-I: T = 298 K; for ∆Gb° (BH-II): from Kb BH-II; for ∆Gb° SK-I: from Kb SK-I; for ∆Gb° (SK-II): from Kb SK-II; for ∆Gb° (WS-II): from Kb WS-II; for ∆Gb° WS-I: from Kb WS-I
Procedure: The DNA-binding experiment was conducted by an electronic absorption spectrophotometer by raising the DNA concentration from zero to 50 μM to the given concentration of all samples (50 μM) in Tris-HCl buffer solution (pH: 7.4) at 25°C [6, 28, 31, 32].
UV-visible absorption titration is the main imperative approach to observing the tendency of test substances to bind with deoxyribonucleic acid. The approach is commonly utilized to evaluate the potency and mode of binding of the test substances with deoxyribonucleic acid. The essential information regarding conformational change, the effectiveness of the DNA-substance binding, and the negatively charged phosphate on deoxyribonucleic acid are neutralized via exterior contact, and intercalation through interactions between π-π stacks is presented by DNA binding towards metal complexes. All complexes (1a-2a), including the free ligand (HL), were measured in the presence and absence of deoxyribonucleic acid by ultraviolet-visible spectrophotometric titrations under Tris-HCl buffer solution (pH: 7.4) at room temperature (Figure 2). In this case, all samples were exposed to two prominent electronic absorption bands at 260 nm and 336–343 nm, consequent to the π-π^∗ transition of the phenyl chromophore and MLCT, respectively. While the amount of DNA concentration rises in each test compound, the interaction of the chemical substance with DNA base pairs generates noticeable alterations in the intraligand charge transfer bands' strength and wavelength. […] The Kb findings were measured for all samples by the Wolfe–Shimmer equations […] by methods I and II, respectively, from the findings of the slope divided by the intercept in the linear regression plots of [DNA]/(ɛa − ɛf) vs. [DNA] and the intercept divided by intercept slope in the linear regression plot of (ɛb − ɛf)/(ɛa − ɛf) vs. 1/[DNA] M^−1 (Figure S17), and the Kb results for each sample were in the subsequent sequence: (1a) > (2a) > (HL). […] It is concluded that the morpholine linked ligand's coplanarity and 2,2′-bipyridine aromatic system complexation with the metal center, which promotes the complex to infiltrate DNA base pairs smoothly, and large aromatic systems may also assist the complex to penetrate the phosphate backbone's core deeply, and those substances may permit the complex to freely penetrate deep into the deoxyribonucleic acid double helix. In addition, the observed isosbestic points are found at 256 and 276 nm for free ligand and complexes (1a-2a), respectively. […] The Wolfe–Shimmer (1 and 2), Benesi–Hildebrand (3 and 4), and Sakthi–Krause equations (5 and 6) were supported to evaluate Kb results for all samples (Table 1). The Benesi–Hildebrand binding constant (Kb) values were measured using equations (3) and (4) by methods I and II, respectively, from the intercept divided by slope in the linear regression plot of [1/(Ax − A0)] vs. {1/[DNA]} M^−1 and the intercept divided by slope in the linear regression plot of [(Amax − A0)/(Ax − A0)] vs. {1/[DNA]} M^−1 (Figure S18). The Kb values were estimated using Sakthi–Krause equations (5) and (6) by methods I and II, respectively, with the intercept divided by slope in the linear regression plot of [(A/(A0 − A)] vs. {1/[DNA]} M^−1 (Figure S19) and the antilogarithm value of the intercept in the linear regression plot of log {1/[DNA]} vs. log [(A/(A0 − A)]M^−1 (Figure S20). In addition, the Van't Hoff equation (7) was supported to obtain the ∆Gb° values for DNA interaction, and equation (8) was supported to measure the % of chromicity for all substances (Table 1). The overall measured Kb findings were in the subsequent sequence: (1a) > (2a) > (HL). In these cases, the observed ∆Gb° values were reported in the range of −19.91 to −29.13, −21.55 to −26.04 and −22.50 to –25.22 kJ·mol^−1, respectively (Table 1). In these cases, the complex (1a) had the highest DNA-binding efficacy among all binding results. […]

## [Cu+2].[O-]c1ccccc1N=Cc1ccc(N2CCOCC2)cc1.[O-]c1ccccc1N=Cc1ccc(N2CCOCC2)cc1.c1ccc(-c2ccccn2)nc1 [(1a), [Cu(L)2(bpy)]]
  % H (hypochromism): 52.18%
  Δλ nm (red shift on DNA binding): 07 nm
  ∆Gb° BH-I: -26.04 kJ/mol
  ∆Gb° (BH-II): -25.04 kJ/mol
  ∆Gb° SK-I: -24.15 kJ/mol
  ∆Gb° (SK-II): -25.22 kJ/mol
  ∆Gb° (WS-II): -24.76 kJ/mol

## Oc1ccccc1N=Cc1ccc(N2CCOCC2)cc1 [(HL), 2-(4-morpholinobenzylideneamino)phenol]
  % H (hypochromism): 37.13%
  Δλ nm (red shift on DNA binding): 04 nm
  ∆Gb° BH-I: -21.55 kJ/mol
  ∆Gb° (BH-II): -24.48 kJ/mol
  ∆Gb° SK-I: -22.50 kJ/mol
  ∆Gb° (SK-II): -24.18 kJ/mol
  ∆Gb° WS-I: -23.85 kJ/mol
  ∆Gb° (WS-II): -23.90 kJ/mol

## [O-]c1ccccc1N=Cc1ccc(N2CCOCC2)cc1.[O-]c1ccccc1N=Cc1ccc(N2CCOCC2)cc1.[Zn+2].c1ccc(-c2ccccn2)nc1 [(2a), [Zn(L)2(bpy)]]
  % H (hypochromism): 43.15%
  Δλ nm (red shift on DNA binding): 05 nm
  ∆Gb° BH-I: -24.79 kJ/mol
  ∆Gb° (BH-II): -24.84 kJ/mol
  ∆Gb° SK-I: -23.70 kJ/mol
  ∆Gb° (SK-II): -24.55 kJ/mol
  ∆Gb° WS-I: -24.315 kJ/mol
  ∆Gb° (WS-II): -24.16 kJ/mol
